According to ChEMBL document CHEMBL1133806, “Synthesis and biological evaluation of novel bisindolylmaleimides that inhibit vascular endothelial cell proliferation” (Bioorg Med Chem Lett, 2001):

Key:
Type in all cases: functional, cell-based
DLD-1 = assay: Antiproliferative activity against human colon cancer cell line (DLD-1 cells) using MTT assay
LoVo = assay: Antiproliferative activity against human colon cancer cell line (LoVo cells) using MTT assay
[1] = Antiproliferative activity against burkit lymphoma cell line (ST-486 cells) using MTT assay; conditions: Homo sapiens
HUVEC = assay: Antiproliferative activity against human umbilical vein endothelial cells (HUVECs) using MTT assay

IC50 (DLD-1) [µM]	IC50 (LoVo) [µM]	SMILES	IC50 [1] [µM]	IC50 (HUVEC) [µM]
40	7	CN(C)CCN1C(=O)C(c2c[nH]c3ccccc23)=C(c2cn(CCOCCO)c3ccccc23)C1=O	10	7
> 100	> 100	CN(C)CCN1C(=O)C(c2c[nH]c3ccccc23)=C(c2c[nH]c3ccccc23)C1=O	> 100	30
6	20	O=C1NC(=O)C(c2cn(CCOCCO)c3ccccc23)=C1c1c[nH]c2ccccc12	2	2
> 100	> 100	CN(C)CCOCCn1cc(C2=C(c3c[nH]c4ccccc34)C(=O)NC2=O)c2ccccc21	10	20
> 100	> 100	CN(C)CCOCCn1cc(C2=C(c3c[nH]c4ccccc34)C(=O)N(CCN(C)C)C2=O)c2ccccc21	30	25
> 100	> 100	CNCCOCCn1cc(C2=C(c3c[nH]c4ccccc34)C(=O)N(CCN(C)C)C2=O)c2ccccc21	20	50
–	–	Cc1ccc(C(=O)Nc2ccc(S(=O)(=O)O)c3cc(S(=O)(=O)O)cc(S(=O)(=O)O)c23)cc1NC(=O)c1cccc(NC(=O)Nc2cccc(C(=O)Nc3cc(C(=O)Nc4ccc(S(=O)(=O)O)c5cc(S(=O)(=O)O)cc(S(=O)(=O)O)c45)ccc3C)c2)c1 [SURAMIN]	–	500

SMILES	IC50 (DLD-1) [µM]	IC50 (LoVo) [µM]	IC50 [1] [µM]	IC50 (HUVEC) [µM]
CN[C@@H]1C[C@H]2O[C@@](C)([C@@H]1OC)n1c3ccccc3c3c4c(c5c6ccccc6n2c5c31)C(=O)NC4 [STAUROSPORINE]	0.009	–	0.007	0.004
